In patent publication US12065433B2, “Positive allosteric modulators of the muscarinic acetylcholine receptor M1” (Vanderbilt University, priority 2018, dated 2024) one finds EC50 and Emax data, which are given here for 19 compounds.

This test has as its target T1, human mAChR M1 (Homo sapiens, UniProt P11229).
T1 sequence (P11229 1-460): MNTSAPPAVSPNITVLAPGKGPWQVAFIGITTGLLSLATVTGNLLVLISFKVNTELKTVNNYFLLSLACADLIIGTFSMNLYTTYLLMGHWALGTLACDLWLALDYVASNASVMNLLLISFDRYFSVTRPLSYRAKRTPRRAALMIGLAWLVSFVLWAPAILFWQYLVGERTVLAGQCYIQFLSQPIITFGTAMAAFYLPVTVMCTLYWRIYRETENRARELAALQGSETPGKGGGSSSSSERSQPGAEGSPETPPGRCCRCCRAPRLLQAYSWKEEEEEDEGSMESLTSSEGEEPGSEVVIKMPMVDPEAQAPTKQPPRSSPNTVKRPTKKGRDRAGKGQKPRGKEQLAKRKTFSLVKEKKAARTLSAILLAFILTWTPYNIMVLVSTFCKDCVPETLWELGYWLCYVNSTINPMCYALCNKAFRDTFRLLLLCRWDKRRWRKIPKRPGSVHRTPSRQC
Nature of the test: mAChR M1 cell-based functional assay (calcium mobilization, PAM mode). The settings on record: CHO-K1 cells stably expressing hM1, calcium flux (Fluo-4); for EC50: concentration-dependent increase in the EC20 acetylcholine response; for Emax: potentiation of EC20 acetylcholine response. The text has this: Chinese hamster ovary (CHO-K1) cells stably expressing rat (r)M1 were purchased from the American Type Culture Collection and cultured according to their indicated protocol. CHO cells stably expressing human (h)M2, hM3, and hM5 were described previously (Levey, et al., 1991); hM1 and hM4 cDNAs were purchased from Missouri S&T cDNA Resource; rM4 cDNA was provided by T. I. Bonner (National Institutes of Health, Bethesda, MD). rM2 and rM3 were cloned from a rat brain cDNA library and sequence verified. hM1, rM2, rM3, hM4, and rM4 cDNAs were used to stably transfect CHO-K1 cells purchased from the American Type Culture Collection using Lipofectamine2000. To make stable rM2, hM2, rM3, hM4, and rM4 cell lines for use in calcium mobilization assays, these cells also were stably transfected with a chimeric G-protein (Gqi5) (provided by B. R. Conklin, University of California, San Francisco) using Lipofectamine 2000. rM1, hM1, rM3, hM3, rM5, and hM5 cells were grown in Ham's F-12 medium containing 10% heat-inactivated fetal bovine serum (FBS), 20 mM HEPES, and 50 μg/mL G418 sulfate. rM2-Gqi5, hM2-Gqi5, and hM4-Gqi5 cells were grown in the same medium also containing 500 μg/mL Hygromycin B. Stable rM4-Gqi5 cells were grown in DMEM containing 10% heat-inactivated FBS, 20 mM HEPES, 400 μg/mL G418 sulfate, and 500 μg/mL Hygromycin B.
For high throughput measurement of agonist-evoked increases in intracellular calcium, CHO-K1 cells stably expressing muscarinic receptors were plated in growth medium lacking G418 and hygromycin at 15,000 cells/20 μL/well in Greiner 384-well black-walled, tissue culture (TC)-treated, clear-bottom plates (VWR). Cells were incubated overnight at 37° C. and 5% CO2. The next day, cells were washed using an ELX 405 (BioTek) with four washes (80 μL) of assay buffer then aspirated to 20 μL. Next, 20 μL of 16 μM Fluo-4/acetoxymethyl ester (Invitrogen, Carlsbad, CA) prepared as a 2.3 mM stock in DMSO and mixed in a 1:1 ratio with 10% (w/v) Pluronic F-127 and diluted in assay buffer was added to the wells and the cell plates were incubated for 50 min at 37° C. and 5% CO2. Dye was removed by washing with the ELX 405 (four […], washes of assay buffer) then aspirated to 20 μL. Compound master plates were formatted in an 11 point CRC format (1:3 dilutions) in 100% DMSO with a starting concentration of 10 mM using the BRAVO liquid handler (Agilent). Test compound CRCs were then transferred to daughter plates (240 nL) using the Echo acoustic plate reformatter (Labcyte, Sunnyvale, CA) and then diluted into assay buffer (40 μL) to a 2× stock using a Thermo Fisher Combi (Thermo Fisher Scientific, Waltham, MA).
Calcium flux was measured using the Functional Drug Screening System (FDSS) 6000 (Hamamatsu Corporation, Tokyo, Japan) as an increase in the fluorescent static ratio. Compounds were applied to cells (20 μL, 2×) using the automated system of the FDSS 6000 at 4 s into the 300 s protocol and the data were collected at 1 Hz. At 144 s into the 300 s protocol, 10 μL of an EC20 concentration of the muscarinic receptor agonist acetylcholine was added (5×), followed by the addition of 12 μL an EC80 concentration of acetylcholine at the 230 s time point (5×). Agonist activity was analyzed as a concentration-dependent increase in calcium mobilization upon compound addition. Emax values for agonist activity are expressed relative to the maximum for acetylcholine. Positive allosteric modulator activity was analyzed as a concentration-dependent increase in the EC20 acetylcholine response. Antagonist activity was analyzed as a concentration-dependent decrease in the EC80 acetylcholine response. Concentration-response curves were generated using a four-parameter logistical equation in XLfit curve fitting software (IDBS, Bridgewater, NJ) for Excel (Microsoft, Redmond, WA) or Prism (GraphPad Software, Inc., San Diego, CA). […]

A word on the EC50: it is the concentration that produces a half-maximal response. The Emax is the greatest response seen or fitted, relative to the assay's reference. Regarding `Cc1c(Cc2ccc(-c3ccn(C)n3)cc2)cc(C(=O)N[C@H]2CCOC[C@@H]2O)c2c1OCO2` [Compound 20, N-[(3R,4S)-3-hydroxytetrahydropyran-4-yl]-7-methyl-6-[[4-(1-methylpyrazol-3-yl)phenyl]methyl]-1,3-benzodioxole-4-carboxamide], the concentration for a half-maximal effect (EC50) came to 330 nM and the Emax was 88%.
The like results for `O=C(N[C@H]1CC[C@@H]1O)c1cc(Cc2ccc(-n3cccn3)cc2)cc2c1OCO2` [Compound 5, N-[(1S,2S)-2-hydroxycyclobutyl]-6-[(4-pyrazol-1-ylphenyl)methyl]-1,3-benzodioxole-4-carboxamide] were, in that order, 3670 nM and 55%.
For the compound `O=C(N[C@H]1CCOC[C@@H]1O)c1cc(Cc2ccc(-n3cccn3)cc2)cc2c1OCO2` [Compound 1, N-[(3R,4S)-3-hydroxytetrahydropyran-4-yl]-6-[(4-pyrazol-1-ylphenyl)methyl]-1,3-benzodioxole-4-carboxamide], the concentration giving a half-maximal response (EC50) worked out at 920 nM and the maximal effect (Emax) was 81%.
For the compound `Cn1ccc(-c2ccc(Cc3cc4c(c(C(=O)NC5CC6(COC6)C5)c3)OCO4)cn2)n1` [Compound 14, 6-[[6-(1-methylpyrazol-3-yl)-3-pyridyl]methyl]-N-(2-oxaspiro[3.3]heptan-6-yl)-1,3-benzodioxole-4-carboxamide], the Emax was 57%.
For the compound `Cn1ccc(-c2ccc(Cc3cc4c(c(C(=O)N[C@H]5CCOC[C@@H]5O)c3)OCO4)cn2)n1` [Compound 9, N-[(3R,4S)-3-hydroxytetrahydropyran-4-yl]-6-[[6-(1-methylpyrazol-3-yl)-3-pyridyl]methyl]-1,3-benzodioxole-4-carboxamide], the half-maximal effective concentration (EC50) turned out to be 1420 nM and the Emax amounted to 75%.
The matching figures for `Cc1nc(-c2ccc(Cc3cc4c(c(C(=O)N[C@H]5CCOC[C@@H]5O)c3)OCO4)cc2)co1` [Compound 16, N-[(3R,4S)-3-hydroxytetrahydropyran-4-yl]-6-[[4-(2-methyloxazol-4-yl)phenyl]methyl]-1,3-benzodioxole-4-carboxamide]: 1810 nM and 78%.
For `O=C(NC1CC2(COC2)C1)c1cc(Cc2ccc(-n3cccn3)cc2)cc2c1OCO2` [Compound 3, N-(2-oxaspiro[3.3]heptan-6-yl)-6-[(4-pyrazol-1-ylphenyl)methyl]-1,3-benzodioxole-4-carboxamide], the maximal effect (Emax) is 59%.
Turning to `Cc1nc(-c2ccc(Cc3cc4c(c(C(=O)N[C@H]5CCCC[C@@H]5O)c3)OCO4)cc2)co1` [Compound 17, N-[(1S,2S)-2-hydroxycyclohexyl]-6-[[4-(2-methyloxazol-4-yl)phenyl]methyl]-1,3-benzodioxole-4-carboxamide], the EC50 was determined as 1150 nM and the Emax is 66%.
In the case of `[2H]C1([2H])Oc2c(C(=O)N[C@H]3CCOC[C@@H]3O)cc(Cc3ccc(-n4cccn4)cc3)c(C)c2O1` [Compound 22, 6-(4-(1H-pyrazol-1-yl)benzyl)-N-((3R,4S)-3-hydroxytetrahydro-2H-pyran-4-yl)-7-methylbenzo[d][1,3]dioxole-2,2-d2-4-carboxamide], the half-maximal effective concentration (EC50) is 44 nM and the maximal response (Emax) was 72%.
In the case of `O=C(N[C@H]1CCCC[C@@H]1O)c1cc(Cc2ccc(-n3cccn3)cc2)cc2c1OCO2` [Compound 2, N-[(1S,2S)-2-hydroxycyclohexyl]-6-[(4-pyrazol-1-ylphenyl)methyl]-1,3-benzodioxole-4-carboxamide], the 50% effective concentration (EC50) came out at 790 nM and the maximum response (Emax) stood at 82%.
Consider `Cc1c(Cc2ccc(-c3ccn(C)n3)cc2)cc(C(=O)N[C@H]2CCCC[C@@H]2O)c2c1OCO2` [Compound 21, N-[(1S,2S)-2-hydroxycyclohexyl]-7-methyl-6-[[4-(1-methylpyrazol-3-yl)phenyl]methyl]-1,3-benzodioxole-4-carboxamide], for which the concentration giving a half-maximal response (EC50) was 410 nM and the maximal effect (Emax) is 80%.
The like results for `[2H]C1([2H])Oc2c(C(=O)N[C@H]3CCCC[C@@H]3O)cc(Cc3ccc(-n4cccn4)cc3)c(C)c2O1` [Compound 23, 6-(4-(1H-pyrazol-1-yl)benzyl)-N-((1S,2S)-2-hydroxycyclohexyl)-7-methylbenzo[d][1,3]dioxole-2,2-d2-4-carboxamide] were, in that order, 210 nM and 75%.
Turning to `CC1(C)COCCC1NC(=O)c1cc(Cc2ccc(-n3cccn3)cc2)cc2c1OCO2` (stereo not drawn) [Compound 8, N-(3,3-dimethyltetrahydropyran-4-yl)-6-[(4-pyrazol-1-ylphenyl)methyl]-1,3-benzodioxole-4-carboxamide], the EC50 was found to be 7330 nM and the Emax came out at 67%.
On to `CC(C)(O)CNC(=O)c1cc(Cc2ccc(-n3cccn3)cc2)cc2c1OCO2` [Compound 7, N-(2-hydroxy-2-methyl-propyl)-6-[(4-pyrazol-1-ylphenyl)methyl]-1,3-benzodioxole-4-carboxamide], for which the maximal effect (Emax) came to 61%.
With `Cn1ccc(-c2ccc(Cc3cc4c(c(C(=O)N[C@H]5CCCC[C@@H]5O)c3)OCO4)cn2)n1` [Compound 11, N-[(1S,2S)-2-hydroxycyclohexyl]-6-[[6-(1-methylpyrazol-3-yl)-3-pyridyl]methyl]-1,3-benzodioxole-4-carboxamide], the EC50 came out at 810 nM and the Emax was found to be 76%.
For the compound `Cn1ccc(-c2ccc(Cc3cc4c(c(C(=O)NC5CCOCC5)c3)OCO4)cn2)n1` [Compound 15, 6-[[6-(1-methylpyrazol-3-yl)-3-pyridyl]methyl]-N-tetrahydropyran-4-yl-1,3-benzodioxole-4-carboxamide], the Emax is 49%.
Consider `Cn1ccc(-c2ccc(Cc3cc4c(c(C(=O)N[C@H]5CCC[C@@H]5O)c3)OCO4)cn2)n1` [Compound 12, N-[(1S,2S)-2-hydroxycyclopentyl]-6-[[6-(1-methylpyrazol-3-yl)-3-pyridyl]methyl]-1,3-benzodioxole-4-carboxamide], for which the EC50 came to 6440 nM and the Emax is 74%.
Consider `Cn1ccc(-c2ccc(Cc3cc4c(c(C(=O)N[C@H]5CC[C@@H]5O)c3)OCO4)cn2)n1` [Compound 13, N-[(1S,2S)-2-hydroxycyclobutyl]-6-[[6-(1-methylpyrazol-3-yl)-3-pyridyl]methyl]-1,3-benzodioxole-4-carboxamide], for which the Emax came to 65%.
As to `O=C(N[C@H]1CCC[C@@H]1O)c1cc(Cc2ccc(-n3cccn3)cc2)cc2c1OCO2` [Compound 4, N-[(1S,2S)-2-hydroxycyclopentyl]-6-[(4-pyrazol-1-ylphenyl)methyl]-1,3-benzodioxole-4-carboxamide], the EC50 was 2480 nM and the Emax came out at 69%.
